Data as given in patent US20050256003A1, “Novel herbicides” (priority 2002, published 2005).

Columns and labels:
[1] = tested on: monocotyledonous and dicotyledonous test plants; test: Herbicidal action prior to emergence of the plants (pre-emergence action); format: in vivo; parameters: key: 10=total damage; 0=no action; Ratings of from 10 to 7 (especially from 10 to 8) indicate good to very good herbicidal action; details: 250 g a.i./ha, pre-emergence spray, evaluated after 3 weeks, scale 10=total damage, 0=no action
Text: Herbicidal Action Prior to Emergence of the Plants (Pre-Emergence Action)
Monocotyledonous and dicotyledonous test plants are sown in standard soil in plastic pots Immediately after sowing, the test compounds, in the form of an aqueous suspension (prepared from a 25% wettable powder (Example F3, b) according to WO 97/34485) or in the form of an emulsion (prepared from a 25% emulsifiable concentrate (Example F1, c)), are applied by spraying in a concentration corresponding to 125 g or 250 g of active ingredient/ha (500 litres of water/ha). The test plants are then grown in a greenhouse under optimum conditions. After a test duration of 3 weeks, the test is evaluated in accordance with a scale of nine ratings (10=total damage, 0=no action). Ratings of from 10 to 7 (especially from 10 to 8) indicate good to very good herbicidal action.

[2] = tested on: monocotyledonous and dicotyledonous test plants; test: Post-emergence herbicidal action; format: in vivo; parameters: key: 10=total damage; 0=no action; Ratings of from 10 to 7 (especially from 10 to 8) indicate good to very good herbicidal action; details: 250 g a.i./ha, about 18 days, rating 0-10
Protocol: Post-Emergence Herbicidal Action
In a greenhouse, monocotyledonous and dicotyledonous test plants are grown in standard soil in plastic pots and at the 4- to 6-leaf stage are sprayed with an aqueous suspension of the test compounds of formula I prepared from a 25% wettable powder (Example F3, b) according to WO 97/34485) or with an emulsion of the test compounds of formula I prepared from a 25% emulsifiable concentrate (Example F1, c) according to WO 97/34485), in a concentration corresponding to 125 g or 250 g of active ingredient/ha (500 litres of water/ha). The test plants are then grown on in a greenhouse under optimum conditions. After a test duration of about 18 days, the test is evaluated in accordance with a scale of nine ratings (10=total damage, 0=no action). Ratings of from 10 to 7 (especially from 10 to 8) indicate good to very good herbicidal action.

| SMILES | Pre-emergence action: Abutilon (rating) [1] | Pre-emergence action: Amaranthus (rating) [1] | Pre-emergence action: Chenopodium (rating) [1] | Pre-emergence action: Cyperus (rating) [1] | Pre-emergence action: Echinochloa (rating) [1] | Pre-emergence action: Panicum (rating) [1] | Pre-emergence action: Scirpus (rating) [1] | Pre-emergence action: Sida (rating) [1] | Post-emergence action, Amaranthus [2] | Post-emergence action, Chenopodium [2] | Post-emergence action, Echinochloa [2] | Post-emergence action, Euphorbia [2] | Post-emergence action, Ipomea [2] | Post-emergence action, Sinapis [2] | Post-emergence action, Stellaria [2] | Post-emergence action, Xanthium [2] |
| --- | --- | --- | --- | --- | --- | --- | --- | --- | --- | --- | --- | --- | --- | --- | --- | --- |
| Cn1ncc(C(=O)c2ccc(C(F)(F)F)nc2Cn2cnn(C)c2=O)c1O [Compound B1.080] | 8 | 0 | 10 | 9 | 10 | 10 | 9 | 0 | 10 | 10 | 9 | 10 | 10 | 10 | 10 | 8 |
| Cn1ncn(Cc2nc(C(F)(F)F)ccc2C(=O)C2=C(O)C3CCC(C3)C2=O)c1=O (stereo not shown) [Compound A6.073] | 10 | 9 | 10 | 7 | 0 | 10 | 10 | 9 | 10 | 10 | 9 | 9 | 10 | 10 | 9 | 9 |
| Cn1ncn(Cc2nc(C(F)(F)F)ccc2C(=O)C2=C(O)CCCC2=O)c1=O [Compound A1.073] | 10 | 10 | 10 | 10 | 3 | 10 | 10 | 9 | 10 | 10 | 9 | 9 | 10 | 10 | 10 | 9 |
| Cc1nn(Cc2nc(C(F)(F)F)ccc2C(=O)C2=C(O)CCCC2=O)c(=O)s1 [Compound A1.079] | 10 | 4 | 8 | 8 | 5 | 9 | 10 | 10 | 9 | 9 | 7 | 8 | 8 | 9 | 9 | 7 |
| Cc1nn(CCOCc2nc(C(F)(F)F)ccc2C(=O)C2=C(O)C3CCC(C3)C2=O)c(=O)o1 (stereo not shown) [Compound A6.100] | 10 | 10 | 10 | 6 | 10 | 10 | 10 | 10 | 9 | 10 | 7 | 7 | 9 | 8 | 9 | 7 |
| Cc1nn(Cc2nc(C(F)(F)F)ccc2C(=O)c2cnn(C)c2O)c(=O)o1 [Compound B1.008] | 10 | 10 | 10 | 9 | 9 | 10 | 10 | 9 | 9 | 10 | 9 | 8 | 9 | 7 | 8 | – |
| Cn1ncn(Cc2nc(C(F)(F)F)ccc2C(=O)C2=C(O)C(C)(C)C(=O)C(C)(C)C2=O)c1=O [Compound A8.080] | 10 | 0 | 10 | 0 | 10 | 9 | 8 | 9 | 9 | 10 | 9 | 9 | 10 | 10 | 10 | 8 |
| COc1nn(Cc2nc(C(F)(F)F)ccc2C(=O)C2=C(O)CCCC2=O)c(=O)s1 [Compound A1.091] | 10 | 8 | 9 | 8 | 9 | 4 | 9 | 7 | 9 | 10 | 9 | 8 | 9 | 8 | 10 | 9 |
